From ChEMBL document CHEMBL5518196, “Discovery of potent thiazolidin-4-one sulfone derivatives for inhibition of proliferation of osteosarcoma in vitro and in vivo” (Eur J Med Chem, 2024)
Activity calls are given as the source filed them. No cut-off for these calls is given here.

Assays:
HOS-TE85 [1] = experiment: Induction of cell cycle arrest in human MNNG/HOS cells incubated for 24 hrs bby PI/RNase A staining based analysis; assay type: functional
MG-63 = experiment: Antiproliferative activity against human MG-63 cells assessed as inhibition of cell growth incubated for 72 hrs by CCK8 assay; assay type: functional, cell-based; conditions: MG-63, 72 h
[2] = Toxicity in female BALB/c mouse xenografted with human MNNG/HOS cells assessed as effect on heart weight at 62.5 mg/kg, ip administered twice daily for 23 days; assay type: organism-based, HOS-TE85; conditions: in vivo, 552 h, time 23 day
MGC-803 = experiment: Antiproliferative activity against human MGC-803 cells assessed as inhibition of cell growth incubated for 72 hrs by CCK8 assay; assay type: functional, cell-based; conditions: MGC-803, 72 h
[3] = Metabolic stability in human liver microsomes assessed as bioavailability at 0.1 uM preincubated for 10 mins followed by NADPH addition and measured upto 60 mins by LC-MS/MS analysis; assay type: ADME, Microsome; conditions: time < 70 min
HOS-TE85 [4] = experiment: Inhibition of cell migration in human MNNG/HOS cells assessed as reduction in closure rate at 0.2 uM incubated for 24 hrs by wound healing assay; assay type: functional, cell-based
[5] = Metabolic stability in mouse liver microsomes assessed as half-life at 0.1 uM preincubated for 10 mins followed by NADPH addition and measured upto 60 mins by LC-MS/MS analysis; assay type: ADME, Microsome; conditions: time < 70 min
HOS-TE85 [6] = experiment: Antiproliferative activity against human MNNG/HOS cells assessed as inhibition of cell growth incubated for 72 hrs by CCK8 assay; assay type: functional, cell-based; conditions: HOS-TE85, 72 h
[7] = Toxicity in female BALB/c mouse xenografted with human MNNG/HOS cells assessed as effect on kidney morphology at 62.5 mg/kg, ip administered twice daily for 23 days by Hematoxylin and Eosin staining based analysis; assay type: organism-based, HOS-TE85; conditions: in vivo, 552 h, time 23 day
HOS-TE85 [8] = experiment: Antitumor activity against human MNNG/HOS cells xenografted in female BALB/c mouse assessed as tumor growth inhibition at 62.5 mg/kg, ip administered twice daily for 23 days relative to control; assay type: functional; conditions: HOS-TE85, 552 h, time 23 day, read-out: TGI
HOS-TE85 [9] = experiment: Induction of apoptosis in human MNNG/HOS cells assessed as effect on caspase-3 level incubated for 24 hrs by Western blot analysis; assay type: functional, cell-based
[10] = Half-life in male ICR mouse at 12.5 mg/kg, iv measured after 24 hrs by LC-MS/MS analysis; assay type: ADME, organism-based; conditions: in vivo
[11] = Toxicity in female BALB/c mouse xenografted with human MNNG/HOS cells assessed as effect on spleen morphology at 62.5 mg/kg, ip administered twice daily for 23 days by Hematoxylin and Eosin staining based analysis; assay type: organism-based, HOS-TE85; conditions: in vivo, 552 h, time 23 day
[12] = Clearance in male ICR mouse at 12.5 mg/kg, iv measured after 24 hrs by LC-MS/MS analysis; assay type: ADME, organism-based; conditions: in vivo
HOS-TE85 [13] = experiment: Antitumor activity against human MNNG/HOS cells xenografted in female BALB/c mouse assessed as reduction in tumor volume at 62.5 mg/kg, ip administered twice daily for 23 days; assay type: functional, organism-based; conditions: time 23.0 day
[14] = Cmax in male ICR mouse at 62.5 mg/kg, ip measured after 24 hrs by LC-MS/MS analysis; assay type: ADME, organism-based; conditions: in vivo
HOS-TE85 [15] = experiment: Inhibition of p53 protein expression in human MNNG/HOS cells incubated for 24 hrs by Western blot analysis; assay type: functional, cell-based
[16] = Toxicity in female BALB/c mouse xenografted with human MNNG/HOS cells assessed as effect on heart morphology at 62.5 mg/kg, ip administered twice daily for 23 days by Hematoxylin and Eosin staining based analysis; assay type: organism-based, HOS-TE85; conditions: in vivo, 552 h, time 23 day
[17] = Toxicity in female BALB/c mouse xenografted with human MNNG/HOS cells assessed as effect on spleen weight at 62.5 mg/kg, ip administered twice daily for 23 days; assay type: organism-based, HOS-TE85; conditions: in vivo, 552 h, time 23 day
PC-3 = experiment: Antiproliferative activity against human PC-3 cells assessed as inhibition of cell growth incubated for 72 hrs by CCK8 assay; assay type: functional, cell-based; conditions: PC-3, 72 h
[18] = AUC (0 to infinity) in male ICR mouse at 62.5 mg/kg, ip measured after 24 hrs by LC-MS/MS analysis; assay type: ADME, organism-based; conditions: in vivo
HOS-TE85 [19] = experiment: Induction of apoptosis in human MNNG/HOS cells assessed as effect on Bcl-2 level incubated for 24 hrs by Western blot analysis; assay type: functional, cell-based
HOS-TE85 [20] = experiment: Effect on DDX5 protein expression in human MNNG/HOS cells by ABPP assay; assay type: functional, cell-based
HOS-TE85 [21] = experiment: Inhibition of colony formation in human MNNG/HOS cells incubated for 10 days by crystal violet staining based light microscopic analysis; assay type: functional, cell-based; conditions: dose 0.1-0.4 µM, time 10.0 day
[22] = AUC (0 to infinity) in male ICR mouse at 12.5 mg/kg, iv measured after 24 hrs by LC-MS/MS analysis; assay type: ADME, organism-based; conditions: in vivo
[23] = Bioavailability in male ICR mouse at 62.5 mg/kg, ip measured after 24 hrs by LC-MS/MS analysis; assay type: ADME, organism-based; conditions: in vivo
[24] = Toxicity in female BALB/c mouse xenografted with human MNNG/HOS cells assessed as effect on kidney weight at 62.5 mg/kg, ip administered twice daily for 23 days; assay type: organism-based, HOS-TE85; conditions: in vivo, 552 h, time 23 day
[25] = Toxicity in female BALB/c mouse xenografted with human MNNG/HOS cells assessed as effect on liver morphology at 62.5 mg/kg, ip administered twice daily for 23 days by Hematoxylin and Eosin staining based analysis; assay type: organism-based, HOS-TE85; conditions: in vivo, 552 h, time 23 day
[26] = Toxicity in female BALB/c mouse xenografted with human MNNG/HOS cells assessed as effect on liver weight at 62.5 mg/kg, ip administered twice daily for 23 days; assay type: organism-based, HOS-TE85; conditions: in vivo, 552 h, time 23 day
SAOS-2 = experiment: Antiproliferative activity against human SAOS-2 cells assessed as inhibition of cell growth incubated for 72 hrs by CCK8 assay; assay type: functional, cell-based; conditions: SAOS-2, 72 h
HOS-TE85 [27] = experiment: Potency index, ratio of sorafenib IC50 to test compound IC50 for antiproliferative activity against human MNNG/HOS cells; assay type: functional
[28] = Antiproliferative activity against BMSC (unknown origin) assessed as inhibition of cell growth incubated for 72 hrs by CCK8 assay; assay type: functional, cell-based
[29] = Metabolic stability in human liver microsomes assessed as half-life at 0.1 uM preincubated for 10 mins followed by NADPH addition and measured upto 60 mins by LC-MS/MS analysis; assay type: ADME, Microsome; conditions: time < 70 min
SJSA-1 = experiment: Antiproliferative activity against human SJSA-1 cells assessed as inhibition of cell growth incubated for 72 hrs by CCK8 assay; assay type: functional, cell-based; conditions: SJSA-1, 72 h
HOS-TE85 [30] = experiment: Induction of apoptosis in human MNNG/HOS cells assessed as effect on Bax level incubated for 24 hrs by Western blot analysis; assay type: functional, cell-based
HOS-TE85 [31] = experiment: Induction of apoptosis in human MNNG/HOS cells at 0.11 to 0.44 uM incubated for 24 hrs by Annexin V-FITC/PI staining based analysis; assay type: functional, cell-based; conditions: dose 0.11-0.44 µM
A549 = experiment: Antiproliferative activity against human A549 cells assessed as inhibition of cell growth incubated for 72 hrs by CCK8 assay; assay type: functional, cell-based; conditions: A549, 72 h
143B = experiment: Antiproliferative activity against human 143B cells assessed as inhibition of cell growth incubated for 72 hrs by CCK8 assay; assay type: functional, cell-based
HOS-TE85 [32] = experiment: Inhibition of MYOF protein expression in human MNNG/HOS cells incubated for 24 hrs by Western blot analysis; assay type: functional, cell-based
[33] = Half-life in male ICR mouse at 62.5 mg/kg, ip measured after 24 hrs by LC-MS/MS analysis; assay type: ADME, organism-based; conditions: in vivo
[34] = Cmax in male ICR mouse at 12.5 mg/kg, iv measured after 24 hrs by LC-MS/MS analysis; assay type: ADME, organism-based; conditions: in vivo
HOS-TE85 [35] = experiment: Antiproliferative activity against human MNNG/HOS cells transfected with DDX5 shRNA assessed as inhibition of cell growth incubated for 72 hrs by CCK8 assay; assay type: functional, cell-based; conditions: HOS-TE85, 72 h

- IC50 (MGC-803): 394 nM
- bioavailability at 0.1 µM [3]: 59.3%
- half-life at 0.1 µM [5]: 1.23 h
- half-life [10]: 0.222 h
- clearance [12]: 126 mL/min/kg
- Cmax [14]: 78.3 ng/mL
- IC50 (PC-3): 4300 nM
- AUC(0-inf) [18]: 9560 ng·h/mL
- AUC(0-inf) [22]: 1660 ng·h/mL
- bioavailability [23]: 115%
- half-life at 0.1 µM [29]: 2.6 h
- IC50 (SJSA-1): 304 nM
- IC50 (A549): 1890 nM
- half-life [33]: 1.53 h
- Cmax [34]: 5420 ng/mL
SMILES: COCCCCNC(=O)c1cccc(C2N(c3ncccc3OC)C(=O)CS2(=O)=O)n1 (racemic)
- Activity (HOS-TE85 [1]): inactive
- IC50 (MG-63): 1090 nM
- Activity [2]: Non-Toxic
- inhibition (HOS-TE85 [4]): Active
- IC50 (HOS-TE85 [6]): 217 nM
- Activity [7]: Non-Toxic
- inhibition in vivo at 62.5 mg/kg (HOS-TE85 [8]): 44.6%
- Activity (HOS-TE85 [9]): inactive
- Activity [11]: Non-Toxic
- Activity (HOS-TE85 [13]): Active
- inhibition (HOS-TE85 [15]): inactive
- Activity [16]: Non-Toxic
- Activity [17]: Non-Toxic
- Activity (HOS-TE85 [19]): inactive
- Activity (HOS-TE85 [20]): inactive
- inhibition (HOS-TE85 [21]): Dose-Dependent Effect
- Activity [24]: Non-Toxic
- Activity [25]: Non-Toxic
- Activity [26]: Non-Toxic
- IC50 (SAOS-2): 430 nM
- Ratio IC50 (HOS-TE85 [27]): ~20
- IC50 [28]: 2130 nM
- Activity (HOS-TE85 [30]): inactive
- Activity (HOS-TE85 [31]): inactive
- IC50 (143B): 295 nM
- inhibition (HOS-TE85 [32]): inactive
- IC50 (HOS-TE85 [35]): 277 nM
